Measurements as given in ChEMBL document CHEMBL4138120, “Modification of C-seco taxoids through ring tethering and substituent replacement leading to effective agents against tumor drug resistance mediated by βIII-Tubulin and P-glycoprotein (P-gp) overexpressions” (Eur J Med Chem, 2017).
Each block holds one compound with its values, some of them ahead of it.

Assays:
[1] = Cytotoxicity against human Hela-beta3 cells assessed as decrease in cell viability after 48 hrs by MTT assay; assay type: functional, cell-based
[2] = Resistance index, ratio of IC50 for human Hela-beta3 cells to IC50 for human HeLa cells; assay type: functional
HeLa [3] = assay: Cytotoxicity against human HeLa cells assessed as decrease in cell viability after 48 hrs by MTT assay; assay type: functional, cell-based
Bos taurus [4] = organism: Bos taurus; assay: Displacement of Flutax-2 from calf brain microtubule after 20 mins by fluorescence polarization assay relative to paclitaxel
[5] = Resistance index, ratio of IC50 for human A2780AD cells to IC50 for human A2780 cells; assay type: functional
A2780 = assay: Cytotoxicity against human A2780 cells assessed as decrease in cell viability after 48 hrs by MTT assay; assay type: functional, cell-based; settings: A2780, 48 h
[6] = Cytotoxicity against human A2780AD cells assessed as decrease in cell viability after 48 hrs by MTT assay; assay type: functional, cell-based
[7] = Resistance index, ratio of IC50 for human KBV1 cells to IC50 for human KB cells; assay type: functional
Bos taurus [8] = organism: Bos taurus; assay: Induction of calf brain microtubule assembly assessed as concentration of unassembled tubulin at 25 uM incubated for 45 mins by spectrophotometric method (reference value: >20 uM)
KB-V1 = assay: Cytotoxicity against human KBV1 cells assessed as decrease in cell viability after 48 hrs by MTT assay; assay type: functional, cell-based; settings: KB-V1, 48 h
HeLa [9] = assay: Cell cycle arrest in human HeLa cells assessed as concentration at which maximal accumulation at G2/M phase after 20 hrs by propidium iodide staining-based flow cytometric method; assay type: functional
[10] = Cell cycle arrest in human Hela-beta3 cells assessed as concentration at which maximal accumulation at G2/M phase after 20 hrs by propidium iodide staining-based flow cytometric method; assay type: functional
KB = assay: Cytotoxicity against human KB cells assessed as decrease in cell viability after 48 hrs by MTT assay; assay type: functional, cell-based
[11] = Cytotoxicity against human Hela-beta3 cells assessed as decrease in cell viability after 48 hrs in presence of beta-3 tubulin siRNA by MTT assay; assay type: functional, cell-based
HeLa [12] = assay: Ratio of IC50 for human HeLa cells harboring beta-3 tubulin siRNA to IC50 for human HeLa cells; assay type: functional
[13] = Potency index, ratio of paclitaxel IC50 to test compound IC50 for human A2780AD cells; assay type: functional

Compound: CC(=O)O[C@@]1([C@@H]2/C(C)=C(/O)C(=O)C3=C(C)[C@@H](OC(=O)[C@H](O)[C@H](CC(C)C)NC(=O)OC(C)(C)C)C[C@@](O)([C@H]2OC(=O)c2ccccc2)C3(C)C)CO[C@@H]1CCO
- IC50 [1]: 33 nM
- Ratio IC50 [2]: 10
- Ratio IC50 [7]: 38.7
- Unassembled tubulin concentration (Bos taurus [8]): 3.2 µM
- IC50 (KB-V1): 255 nM
- Ratio IC50 [5]: 207
- IC50 (HeLa [3]): 3.3 nM
- Activity (HeLa [9]): 15 nM
- IC50 (A2780): 4.3 nM
- Activity [10]: 15 nM
- IC50 (KB): 6.6 nM
- IC50 [6]: 893 nM
- fold change (FC) (Bos taurus [4]): 0.132

Compound: CO/C1=C(\C)[C@@H]([C@]2(OC(C)=O)CO[C@@H]2CCO)[C@H](OC(=O)c2ccccc2)[C@]2(O)C[C@H](OC(=O)[C@H](O)[C@@H](NC(=O)c3ccccc3)c3ccccc3)C(C)=C(C1=O)C2(C)C
- IC50 [1]: 3840 nM
- Ratio IC50 [2]: 12.3
- IC50 (HeLa [3]): 312 nM

Compound: COCC[C@H]1OC[C@@]1(OC(C)=O)[C@@H]1/C(C)=C(/O)C(=O)C2=C(C)[C@@H](OC(=O)[C@H](O)[C@@H](NC(=O)c3ccccc3)c3ccccc3)C[C@@](O)([C@H]1OC(=O)c1ccccc1)C2(C)C
- IC50 [1]: 226 nM
- Ratio IC50 [2]: 7.6
- IC50 (HeLa [3]): 30 nM

Compound: COc1cccc(C(=O)O[C@H]2[C@H]([C@]3(OC(C)=O)CO[C@@H]3CCO)/C(C)=C(/O)C(=O)C3=C(C)[C@@H](OC(=O)[C@H](O)[C@H](CC(C)C)NC(=O)OC(C)(C)C)C[C@]2(O)C3(C)C)c1
- IC50 [1]: 72 nM
- Ratio IC50 [2]: 33.6
- Ratio IC50 [7]: 1172
- Unassembled tubulin concentration (Bos taurus [8]): 16.6 µM
- IC50 (KB-V1): 3400 nM
- Ratio IC50 [5]: 279
- IC50 (HeLa [3]): 2.1 nM
- Activity (HeLa [9]): 80 nM
- IC50 (A2780): 5.1 nM
- Activity [10]: 25 nM
- IC50 (KB): 2.9 nM
- IC50 [6]: 1420 nM
- fold change (FC) (Bos taurus [4]): 1.28

Compound: CC(=O)O[C@@]1([C@@H]2/C(C)=C(/O)C(=O)C3=C(C)[C@@H](OC(=O)[C@H](O)[C@H](CC(C)C)NC(=O)OC(C)(C)C)C[C@@](O)([C@H]2OC(=O)c2cccc(N=[N+]=[N-])c2)C3(C)C)CO[C@@H]1CCO
- IC50 [1]: 19 nM
- Ratio IC50 [2]: 21
- Ratio IC50 [7]: 97
- Unassembled tubulin concentration (Bos taurus [8]): 3.63 µM
- IC50 (KB-V1): 503 nM
- Ratio IC50 [5]: 23.4
- IC50 (HeLa [3]): 0.9 nM
- Activity (HeLa [9]): 20 nM
- IC50 (A2780): 4.1 nM
- Activity [10]: 10 nM
- IC50 (KB): 5.2 nM
- IC50 [6]: 96 nM
- fold change (FC) (Bos taurus [4]): 2.17

Compound: CC(=O)O[C@H]1C(=O)[C@@]2(C)[C@H]([C@H](OC(=O)c3ccccc3)[C@]3(O)C[C@H](OC(=O)[C@H](O)[C@@H](NC(=O)c4ccccc4)c4ccccc4)C(C)=C1C3(C)C)[C@]1(OC(C)=O)CO[C@@H]1C[C@@H]2O [PACLITAXEL]
- IC50 [1]: 19.7 to 34 nM
- Ratio IC50 [2]: 19.6 - 31.8
- Ratio IC50 [7]: 5157
- Unassembled tubulin concentration (Bos taurus [8]): 5.36 µM
- IC50 (KB-V1): 9800 nM
- IC50 [11]: 9 nM
- Ratio IC50 [5]: 759 - 1198
- IC50 (HeLa [3]): 1.1 to 1.3 nM
- Activity (HeLa [9]): 35 nM
- Ratio IC50 (HeLa [12]): 4
- IC50 (A2780): 1.07 to 6 nM
- Activity [10]: 15 nM
- IC50 (KB): 1.9 nM
- IC50 [6]: 1280 to 4550 nM

Compound: CC(=O)O[C@@]1([C@@H]2/C(C)=C(/O)C(=O)C3=C(C)[C@@H](OC(=O)[C@H](O)[C@@H](NC(=O)c4ccccc4)c4ccccc4)C[C@@](O)([C@H]2OC(=O)c2cccc(N=[N+]=[N-])c2)C3(C)C)CO[C@@H]1CCO
- IC50 [1]: 209 nM
- Ratio IC50 [2]: 209
- Ratio IC50 [7]: 1000
- Unassembled tubulin concentration (Bos taurus [8]): 3.82 µM
- IC50 (KB-V1): 5100 nM
- IC50 (HeLa [3]): 1 nM
- Activity (HeLa [9]): 55 nM
- IC50 (A2780): 1.6 nM
- Activity [10]: 20 nM
- IC50 (KB): 5.1 nM
- IC50 [6]: > 5000 nM
- fold change (FC) (Bos taurus [4]): 1.18

The next lines start with results.

- fold change (FC) (Bos taurus [4]): 0.89
Compound: CC(=O)O[C@@]12CO[C@@H]1CCOCCCCO/C1=C(\C)[C@@H]2[C@H](OC(=O)c2ccccc2)[C@]2(O)C[C@H](OC(=O)[C@H](O)[C@@H](NC(=O)c3ccccc3)c3ccccc3)C(C)=C(C1=O)C2(C)C
- IC50 [1]: 58 nM
- Ratio IC50 [2]: 6.9
- IC50 (HeLa [3]): 8 nM

- fold change (FC) (Bos taurus [4]): 0.17
Compound: CC(=O)O[C@@]12CO[C@@H]1CCOC/C=C/CCCO/C1=C(\C)[C@@H]2[C@H](OC(=O)c2ccccc2)[C@]2(O)C[C@H](OC(=O)[C@H](O)[C@@H](NC(=O)c3ccccc3)c3ccccc3)C(C)=C(C1=O)C2(C)C
- IC50 [1]: 282 nM
- Ratio IC50 [2]: 2.2
- IC50 (HeLa [3]): 126 nM

- fold change (FC) (Bos taurus [4]): 0.1
Compound: CC(=O)O[C@@]1([C@@H]2/C(C)=C(/O)C(=O)C3=C(C)[C@@H](OC(=O)[C@H](O)[C@@H](NC(=O)c4ccccc4)c4ccccc4)C[C@@](O)([C@H]2OC(=O)c2ccccc2)C3(C)C)CO[C@@H]1CCO
- IC50 [1]: 2980 nM
- Ratio IC50 [2]: 15.6
- Ratio IC50 [5]: >35.4
- IC50 (HeLa [3]): 192 nM
- IC50 (A2780): 282 nM
- IC50 [6]: > 10000 nM

- fold change (FC) (Bos taurus [4]): 0.96
Compound: CC(=O)O[C@@]12CO[C@@H]1CCOC/C=C/CO/C1=C(\C)[C@@H]2[C@H](OC(=O)c2ccccc2)[C@]2(O)C[C@H](OC(=O)[C@H](O)[C@@H](NC(=O)c3ccccc3)c3ccccc3)C(C)=C(C1=O)C2(C)C
- IC50 [1]: 26 nM
- Ratio IC50 [2]: 7.5
- Ratio IC50 [5]: 77.1
- IC50 (HeLa [3]): 3.5 nM
- IC50 (A2780): 22.3 nM
- IC50 [6]: 1720 nM

- fold change (FC) (Bos taurus [4]): 0.23
Compound: CC(=O)O[C@@]12CO[C@@H]1CCOC/C=C/CCO/C1=C(\C)[C@@H]2[C@H](OC(=O)c2ccccc2)[C@]2(O)C[C@H](OC(=O)[C@H](O)[C@@H](NC(=O)c3ccccc3)c3ccccc3)C(C)=C(C1=O)C2(C)C
- IC50 [1]: 158 nM
- Ratio IC50 [2]: 5.7
- IC50 (HeLa [3]): 27.9 nM

- fold change (FC) (Bos taurus [4]): 0.96
Compound: CC(=O)O[C@@]12CO[C@@H]1CCOC/C=C\CCO/C1=C(\C)[C@@H]2[C@H](OC(=O)c2ccccc2)[C@]2(O)C[C@H](OC(=O)[C@H](O)[C@@H](NC(=O)c3ccccc3)c3ccccc3)C(C)=C(C1=O)C2(C)C
- IC50 [1]: 34 nM
- Ratio IC50 [2]: 5.1
- Ratio IC50 [5]: 87.4
- IC50 (HeLa [3]): 6.7 nM
- IC50 (A2780): 25.1 nM
- IC50 [6]: 2190 nM

- fold change (FC) (Bos taurus [4]): 0.61
Compound: CC(=O)O[C@@]12CO[C@@H]1CCOCCCCCCO/C1=C(\C)[C@@H]2[C@H](OC(=O)c2ccccc2)[C@]2(O)C[C@H](OC(=O)[C@H](O)[C@@H](NC(=O)c3ccccc3)c3ccccc3)C(C)=C(C1=O)C2(C)C
- IC50 [1]: 118 nM
- Ratio IC50 [2]: 5.3
- IC50 (HeLa [3]): 22 nM

- Unassembled tubulin concentration (Bos taurus [8]): 2.34 µM
- fold change (FC) (Bos taurus [4]): 1.15
Compound: CC(=O)O[C@@]12CO[C@@H]1CCOC/C=C/CO/C1=C(\C)[C@@H]2[C@H](OC(=O)c2cccc(N=[N+]=[N-])c2)[C@]2(O)C[C@H](OC(=O)[C@H](O)[C@@H](NC(=O)c3ccccc3)c3ccccc3)C(C)=C(C1=O)C2(C)C
- IC50 [1]: 45 nM
- Ratio IC50 [2]: 64
- Ratio IC50 [7]: 6.2
- IC50 (KB-V1): 94 nM
- Ratio IC50 [5]: 11.4
- IC50 (HeLa [3]): 0.7 nM
- Activity (HeLa [9]): 25 nM
- IC50 (A2780): 2.8 nM
- Activity [10]: 15 nM
- IC50 (KB): 15 nM
- IC50 [6]: 32 nM

- fold change (FC) (Bos taurus [4]): 1.3
Compound: CC(=O)O[C@@]12CO[C@@H]1CCOCCCCCO/C1=C(\C)[C@@H]2[C@H](OC(=O)c2ccccc2)[C@]2(O)C[C@H](OC(=O)[C@H](O)[C@@H](NC(=O)c3ccccc3)c3ccccc3)C(C)=C(C1=O)C2(C)C
- IC50 [1]: 13.3 to 20 nM
- Ratio IC50 [2]: 6
- IC50 [11]: 5.2 nM
- Ratio IC50 [5]: 55
- IC50 (HeLa [3]): 3.3 nM
- Ratio IC50 (HeLa [12]): 1.5
- Ratio IC50 [13]: 2 - 3
- IC50 (A2780): 25.4 nM
- IC50 [6]: 1400 nM
